For experiment [1], the system named is mice model of APAP intoxication. Nature of the experiment: In vivo mice model of APAP intoxication, plasma ALT. Further details: species or system C57Bl/6J male mice. Conditions: for ALT plasma level: 8 h after APAP, APAP only ~3000, control ~100 IU/L. As to the method: Nine-week-old C57Bl/6J male mice were purchased from Janvier Labs (Le Genest St Isle, France). After one week of acclimatization in the animal house, mice were fasted overnight before experimentation. Acetaminophen (APAP) was purchased from Sigma-Aldrich (A70-85-100 g, batch #SCLF8273) and diluted at 20 mg/mL in PBS (preheated at 45° C.). Acetaminophen intoxication was induced in mice by intraperitoneal (i.p.) injection of APAP (400 mg/kg). One hour after APAP injection, mice were treated with inhibitors by intraperitoneal injection. N-acetylcysteine (NAC, A9165-25 g, Sigma-Aldrich, batch #SLCJ1628), the reference treatment for paracetamol intoxication, was diluted at 40 mg/mL in PBS Tween80 5% and injected via intraperitoneal route at a dose of 200 mg/kg. Compound 7 was diluted at 1 mg/ml or 2 mg/ml in PBS Tween80 5% and injected by intraperitoneal injection with increasing concentrations (2.5, 5 or 10 mg/kg) or in combination with NAC (200 mg/kg). There were two groups of control mice: the first one was injected via i.p. route with PBS Tween80 5% (Tween80 5%) and the second group, treated with APAP, was administered one hour after APAP with PBS Tween80 5% (APAP-Tween80 5%) via i.p.. Mice were slaughtered eight hours after APAP injection. Blood and liver were collected.
Serum alanine aminotransferase (ALT) plasma levels were measured according to the International Federation of Clinical Chemistry and Laboratory Medicine primary reference procedures using an Olympus AU2700 Autoanalyser (Olympus Optical).
Results were expressed as means SEM. Mean differences between two experimental groups were assessed using the non-parametric Mann-Whitney U-test. […] Calculated P values are integrated on histograms and graphs. Significance is shown as follows: $ P<0.05, $$ P<0.01, $$$ P<0.001 and $$$ P<0.0001 (comparison between APAP mice and APAP mice treated with NAC and/or compound 7); * P<0.05, ** P<0.01, *** P<0.001 and **** P<0.0001 (comparison between treated groups).
Nine Groups of Mice were Studied: • Tween80 5%, n=15 • APAP (400 mg/kg)+Tween 80 5%, n=31 • APAP (400 mg/kg)+NAC (200 mg/kg), n=15 • APAP (400 mg/kg)+compound 7 (2.5 mg/kg), n=23 • APAP (400 mg/kg)+compound 7 (5 mg/kg), n=21 • APAP (400 mg/kg)+compound 7 (10 mg/kg), n=21 • APAP (400 mg/kg)+compound 7 (2.5 mg/kg)+(NAC 200 mg/kg), n=9 • APAP (400 mg/kg)+compound 7 (5 mg/kg)+NAC (200 mg/kg), n=9 • APAP (400 mg/kg)+compound 7 (10 mg/kg)+NAC (200 mg/kg), n=13

In a further experiment the test system is ARPE-19 cells. Nature of the experiment: Cell viability (MTS) of ARPE-19 cells treated with sodium iodate, model of eye disease. It counts as cell-based, Human. Conditions: 10 mM sodium iodate 24 h. As to the method: The ARPE-19 cells (Human Retinal pigment epithelial cell line) were cultured in standard DMEM/F12 medium (GIBCO), supplemented with 10% fetal bovine serum (GIBCO), at 37° C. in presence of 5% CO2.
(§1) SH-SY5Y, LLC-PK1, ARPE-19 and HT22 cells were seeded in 96-well plates at a density of 10 000 or 5000 cells per well respectively, following overnight incubation. Cells were treated with 10 μM (SH-SY5Y cells) or 0.5 μM (HT22 cells) of erastin or 2 μM of RSL3 (LLCPK1) or 10 mM of sodium iodate (ARPE-19 cells) for 24 h.
(§2) Erastin and RSL3 was purchased from Selleck Chemical and sodium iodate from Sigma Aldrich. Cell viability was assessed by MTS assay (CellTiter 96@D AQueous Non-Radioactive Cell Proliferation Assay; Promega, Fitchburg, WI, USA) according to the manufacturer's instructions. This assay is based on the reduction of the 3-(4,5-dimethylthiazol-2-yl)-5-(3-carboxymethoxyphenyl)-2-(4-sulfophenyl)-2H-tetrazolium (MTS) by viable cells to form a colored formazan product. After treatment, cells were incubated 3 h at 37° C., 5% CO2 with MTS. The absorbance was measured using a microplate reader at 490 and 630 nm and the percentage of viability was calculated by dividing the absorbance of testing compound by the absorbance of DMSO treated cells (control).
(§3) Cells (HT-22, SHSY-5Y, LLC-PK1 and ARPE 19) were seeded in a 96-well plate in their respective medium overnight. The next day they were treated with NAC or a derivative thereof including NACA or N-acetylcysteine ethyl ester (compound A), with inhibitor compound (compound B) or with a combination of the two compounds. The analysis of the effects of the combination of the association of compound A (NAC or a derivative thereof including NACA and N-acetylcysteine ethyl ester) with another compound B is based on the independence model of Bliss. In this approach, the effect of compound alone (EA or EB) or in combination is expressed as a probability (0≤E≤1). The combined effect of the compounds is defined by:
(§4) wherein EA and EB represent the effects of compound A and compound B respectively, and EAB the combined effect of the combination of A and B (expected effect on histogram). Calculation index CI is calculated as follows: CI=(EA+EB−EA*EB)/EAB wherein CI is synergistic, antagonistic or additive when CI is under, above or equal to 1 respectively [Duarte et al., Current Research in Pharmacology and Drug Discovery, 2022].
Age-related macular degeneration, or AMD, is characterized by vision loss caused by degeneration of the central cells of the retina, called the macula. […] One model used to study retinal cell death is that of human ARPE-19 cells, a retinal pigment epithelial cell line, in the presence of sodium iodate (NaIO3, a potent oxidizing agent) [Hanus et al. Cell Death Discov. 2016, 2, 16054][Chan et al., J. Biomed. Sci., 2019, 26:40].

The next experiment has as its system SH-SY5Y cells. Briefly: Cell viability (MTS) of SH-SY5Y cells treated with erastin (ferroptosis), neurotoxicity model. It counts as cell-based, Human. The conditions noted are these: 10 μM erastin 24 h. As to the method: (§5) The SH-SY5Y neuronal cells (Human Neuroblastoma Cell line) and HT-22 cells (Mouse Hippocampal Neuronal Cell line) were maintained in standard DMEM with GlutaMAX medium (GIBCO), supplemented with 10% fetal bovine serum (GIBCO), at 37° C. in presence of 5% CO2.
as §1, §2, §3, §4
Cell death by ferroptosis was induced by erastin [Dixon et al., Cell, 2012, 149(5), 1060-1072] in both cell lines. Erastin is a well described ferroptosis inducer and also a molecular tool to study neuronal pathologies [Lewerenz et al., Front. Neurosci., 2018, 12: 214].

The subject of the next experiment is LLC-PK1 cells. Nature of the experiment: Cell viability (MTS) of LLC-PK1 cells treated with RSL3. It counts as cell-based, Pig. The conditions noted are these: 2 μM RSL3 24 h. As to the method:
The LLC-PK1 cells (Pig Kidney Epithelial cells) were cultured in DMEM/F12(GIBCO), supplemented with 10% fetal bovine serum (GIBCO), at 37° C. in presence of 5% CO2.
as §1, §2
Cells (HT-22, SHSY-5Y, LLC-PK1 and ARPE 19) were seeded in a 96-well plate in their respective medium overnight. The next day they were treated with NAC or a derivative thereof including NACA or N-acetylcysteine ethyl ester (compound A), with inhibitor compound (compound B) or with a combination of the two compounds. […] In this approach, the effect of compound alone (EA or EB) or in combination is expressed as a probability (0≤E≤1). […]
as §4

For the next experiment, the system named is HT-22 cells. Briefly: Cell viability (MTS) of HT22 cells treated with erastin (ferroptosis), neurotoxicity model. Format: cell-based, Mouse. The conditions noted are these: 0.5 μM erastin 24 h. As to the method: as §5, §1, §2
Cells (HT-22, SHSY-5Y, LLC-PK1 and ARPE 19) were seeded in a 96-well plate in their respective medium overnight. […] In this approach, the effect of compound alone (EA or EB) or in combination is expressed as a probability (0≤E≤1). […]
wherein EA and EB represent the effects of compound A and compound B respectively, and EAB the combined effect of the combination of A and B (expected effect on histogram). Calculation index CI is calculated as follows: CI=(EA+EB−EA*EB)/EAB wherein CI is synergistic, antagonistic or additive when CI is under, above or equal to 1 respectively [Duarte et al., Current Research in Pharmacology and Drug Discovery, 2022]. […]

The mark [2] stands for this setting: NAC 200 mg/kg with compound 7 10 mg/kg i.p. one hour after APAP 400 mg/kg.

Turning to `CC(=O)N[C@@H](CS)C(=O)O` [NAC, N-acetylcysteine], the ALT plasma level in experiment [1] (NAC 200 mg/kg i.p. one hour after APAP 400 mg/kg i.p.) is ~ 1300 IU/L.

As for `NCCOCCOc1ccc(-c2cc3cccnc3[nH]2)cc1` [Compound 45], in the experiment on ARPE-19 cells (FIG. 1, 10 μM cmpd 45 + 100 μM NAC), the “effect on viability, combined with NAC (Bliss model)” value (shortened to “effect … with NAC (Bliss model)”) is listed as “synergistic effect”. Moreover, the “effect on viability, compound alone” value with ARPE-19 cells (FIG. 1, 10 μM cmpd 45 alone) was “significant effect”.

With `COc1cc(O)c2c(c1)OC(O)(c1ccc(OCc3ccccc3)cc1)CC2=O` (stereo not shown) [Compound 46], the “effect … with NAC (Bliss model)” value with SH-SY5Y cells (FIG. 3, 25 μM cmpd 46 + 100 μM NAC) is “synergistic effect”; in the experiment on LLC-PK1 cells (FIG. 12, 25 μM Compound 46 + 500 μM NAC), “synergistic effect”; in the experiment on ARPE-19 cells (FIG. 2, 5 μM cmpd 46 + 50 μM NAC), “synergistic effect”. In addition, the “effect on viability, compound alone” value in the experiment with SH-SY5Y cells (FIG. 3, 25 μM cmpd 46 alone) is on record as “significant effect”; in the experiment on SH-SY5Y cells (FIG. 16, 25 μM Compound 46 alone) it was “significant effect”; with ARPE-19 cells (FIG. 2, 5 μM cmpd 46 alone), “significant effect”; with ARPE-19 cells (FIG. 13, 10 μM cmpd 46 alone), “significant effect”. The “effect on viability, combined with N-acetylcysteine ethyl ester (Bliss model)” value with SH-SY5Y cells (FIG. 16, 25 μM Compound 46 + 100 μM N-acetylcysteine ethyl ester) is given as “synergistic effect”. The “effect on viability, combined with NACA (Bliss model)” value in the experiment with ARPE-19 cells (FIG. 13, 10 μM cmpd 46 + 125 μM NACA) is reported as “synergistic effect”.

With `Oc1ccc(-c2cc3cccnc3[nH]2)cc1` [Compound 7, sibiriline], in experiment [1] (NAC 200 mg/kg in combination with compound 7 2.5, 5 or 10 mg/kg i.p., FIG. 9a-c), the “protective effect against APAP toxicity, combination versus NAC alone or compound 7 alone” value is “better and synergistic protective effect”. Moreover, in experiment [1] (setting [2]), the “protection against APAP toxicity” value was “almost complete protection”. Also, the ALT plasma level is given as ~ 200 IU/L in experiment [1] (setting [2]) and ~ 1000 IU/L in experiment [1] (compound 7 10 mg/kg i.p. one hour after APAP 400 mg/kg i.p.). For the same compound, the “effect on ALT plasma levels, compound alone” value in experiment [1] (compound 7 2.5, 5 or 10 mg/kg i.p. one hour after APAP 400 mg/kg, maximum effect at 10 mg/kg) is “reducing ALT plasma levels in a dose-dependent manner”. In addition, the “effect … with NAC (Bliss model)” value is “synergistic effect” with HT-22 cells (FIG. 5, 25 μM cmpd 7 + 100 μM NAC) and “synergistic effect” in the experiment on LLC-PK1 cells (FIG. 10, 2.5 μM Compound 7 + 500 μM NAC). Moreover, the “effect on viability, combined with N-acetylcysteine ethyl ester (Bliss model)” value in the experiment with SH-SY5Y cells (FIG. 14, 10 μM Compound 7 + 100 μM N-acetylcysteine ethyl ester) was “synergistic effect”. Also, the “effect on viability, compound alone” value in the experiment with SH-SY5Y cells (FIG. 14, 10 μM Compound 7 alone) is listed as “significant effect”.

`Oc1ccc(-c2cc3ccc(Cl)nc3[nH]2)cc1` [Compound 37]: the “effect … with NAC (Bliss model)” value in the experiment with HT-22 cells (FIG. 6, 50 μM cmpd 37 + 100 μM NAC) is on record as “synergistic effect”.

In the case of `Oc1ccc(-c2cc3ccccc3[nH]2)cc1` [Compound 1], the “effect … with NAC (Bliss model)” value in the experiment with HT-22 cells (FIG. 7, 5 μM cmpd 1 + 100 μM NAC) is on record as “synergistic effect”; in the experiment on SH-SY5Y cells (FIG. 4, 1 μM cmpd 1 + 100 μM NAC), “synergistic effect”; with LLC-PK1 cells (FIG. 11, 1 μM Compound 1 + 500 μM NAC), “synergistic effect”. Further, the “effect on viability, compound alone” value with SH-SY5Y cells (FIG. 4, 1 μM cmpd 1 alone) was “significant effect”; with SH-SY5Y cells (FIG. 15, 2.5 μM Compound 1 alone), “significant effect”. Besides, in the experiment on SH-SY5Y cells (FIG. 15, 2.5 μM Compound 1 + 100 μM N-acetylcysteine ethyl ester), the “effect on viability, combined with N-acetylcysteine ethyl ester (Bliss model)” value was “synergistic effect”.

The values above are taken from patent US20260263402A1, “SYNERGISTIC COMBINATIONS OF REGULATED NECROSIS INHIBITORS WITH N-ACETYLCYSTEINE” (priority 2022, published 2026).
